Source: ChEMBL document CHEMBL2177008, “Discovery of benzodiazepine sulfonamide-based bombesin receptor subtype 3 agonists and their unusual chirality” (ACS Med Chem Lett, 2011)
Active and inactive are the calls of the source. The rule behind the calls is not given here.

Assays:
[1] = target: T1, Bombesin receptor subtype-3 (Mus musculus) (UniProt O54798); experiment: Agonist activity at mouse BRS3 expressed in HEK293 cells expressing aequorin measured for 30 secs by bioluminescence assay relative to [125I]-[D-Tyr6,beta-Ala11,Phe13,Nle14]-Bombesin(6-14); type: functional, cell-based
T1 sequence (whole entry): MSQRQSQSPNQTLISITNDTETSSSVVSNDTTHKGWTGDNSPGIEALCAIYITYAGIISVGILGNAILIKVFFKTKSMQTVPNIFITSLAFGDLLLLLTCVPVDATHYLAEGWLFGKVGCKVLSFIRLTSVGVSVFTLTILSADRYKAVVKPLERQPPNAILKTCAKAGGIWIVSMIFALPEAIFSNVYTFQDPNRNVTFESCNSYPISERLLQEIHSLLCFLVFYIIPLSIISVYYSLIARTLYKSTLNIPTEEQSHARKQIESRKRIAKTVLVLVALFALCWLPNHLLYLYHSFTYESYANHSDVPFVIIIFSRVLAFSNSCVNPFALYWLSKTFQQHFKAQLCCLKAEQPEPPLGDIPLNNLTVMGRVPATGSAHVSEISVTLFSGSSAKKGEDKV

[2] = target: T2, Bombesin receptor subtype-3 (Homo sapiens, UniProt P32247); experiment: Agonist activity at human BRS3 expressed in HEK293 cells expressing aequorin measured for 30 secs by bioluminescence assay; type: functional, cell-based
T2 sequence (P32247 whole entry): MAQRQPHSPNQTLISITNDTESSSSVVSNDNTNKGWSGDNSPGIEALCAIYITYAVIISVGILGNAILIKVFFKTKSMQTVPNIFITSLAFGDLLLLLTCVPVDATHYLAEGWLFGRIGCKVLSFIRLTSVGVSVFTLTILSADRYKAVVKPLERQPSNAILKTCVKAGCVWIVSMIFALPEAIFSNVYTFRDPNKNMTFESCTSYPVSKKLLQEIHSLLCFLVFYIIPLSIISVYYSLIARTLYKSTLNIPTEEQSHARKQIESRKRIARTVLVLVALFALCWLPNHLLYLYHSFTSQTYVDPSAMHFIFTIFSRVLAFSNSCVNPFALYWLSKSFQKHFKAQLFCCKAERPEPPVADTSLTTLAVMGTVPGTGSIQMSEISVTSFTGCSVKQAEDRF

[3] = target: T3, Bombesin receptor subtype-3 (Mus musculus, UniProt O54798); experiment: Agonist activity at mouse BRS3 expressed in HEK293 cells expressing aequorin measured for 30 secs by bioluminescence assay; type: functional, cell-based
T3 sequence (O54798 whole entry): T1 sequence (whole entry)

[4] = target: T2, Bombesin receptor subtype-3; experiment: Displacement of [125I]-[D-Tyr6,beta-Ala11,Phe13,Nle14]-Bombesin(6-14) from human BRS3 expressed in CHO cells expressing NFAT after 2 hrs by liquid scintillation counting; type: cell-based
[5] = Oral bioavailability in Sprague-Dawley rat at 4 mg/kg; type: ADME, organism-based; conditions: in vivo
[6] = Half life in Sprague-Dawley rat at 1 mg/kg, iv; type: ADME, organism-based; parameters: dose 1 mg/kg, route intravenous; conditions: in vivo
Rattus norvegicus = experiment: Dose normalized AUC in Sprague-Dawley rat at 4 mg/kg, po; type: ADME, organism-based; parameters: dose 4 mg/kg, route oral; conditions: in vivo
[7] = Plasma clearance in Sprague-Dawley rat at 1 mg/kg, iv; type: ADME, organism-based; parameters: dose 1 mg/kg, route intravenous
Mus musculus [8] = experiment: Antiobesity activity in diet-induced obese wild type C57 mouse assessed as weight loss at 3 mg/kg, po administered QD 60 mins prior to dark cycle onset relative to control; type: functional
Mus musculus [9] = experiment: Antiobesity activity in po dosed diet-induced obese wild type C57 mouse assessed as body weight loss administered 60 mins prior to dark cycle onset measured after 18 hrs; type: functional, organism-based
Macaca mulatta = species: Macaca mulatta; experiment: Agonist activity at rhesus monkey BRS3 relative to [125I]-[D-Tyr6,beta-Ala11,Phe13,Nle14]-Bombesin(6-14); type: functional
[10] = target: Voltage-gated inwardly rectifying potassium channel KCNH2 (Homo sapiens, UniProt Q12809); experiment: Inhibition of human ERG
Mus musculus [11] = experiment: Antiobesity activity in po dosed diet-induced obese wild type C57 mouse assessed as reduction in food intake administered 60 mins prior to dark cycle onset measured after 18 hrs; type: functional, organism-based
[12] = target: T4, Nuclear receptor subfamily 1 group I member 2 (Homo sapiens, UniProt O75469); experiment: Activation of human PXR
T4 sequence (O75469 whole entry): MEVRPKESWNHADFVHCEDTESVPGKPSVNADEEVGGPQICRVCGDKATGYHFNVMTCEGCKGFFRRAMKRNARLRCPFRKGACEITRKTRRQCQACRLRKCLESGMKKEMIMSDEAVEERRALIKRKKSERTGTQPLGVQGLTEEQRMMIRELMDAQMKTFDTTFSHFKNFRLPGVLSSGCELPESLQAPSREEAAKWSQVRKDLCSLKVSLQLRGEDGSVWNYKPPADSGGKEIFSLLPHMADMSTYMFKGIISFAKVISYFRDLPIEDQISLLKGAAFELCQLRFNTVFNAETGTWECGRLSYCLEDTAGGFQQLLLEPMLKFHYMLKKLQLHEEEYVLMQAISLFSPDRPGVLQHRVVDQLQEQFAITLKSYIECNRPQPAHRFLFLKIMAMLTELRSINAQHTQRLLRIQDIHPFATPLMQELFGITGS

[13] = Displacement of [125I]-[D-Tyr6,beta-Ala11,Phe13,Nle14]-Bombesin(6-14) from rhesus monkey BRS3; parameters: species or system Macaca mulatta
[14] = Half life in rhesus monkey; type: ADME, organism-based, Macaca mulatta; conditions: in vivo
[15] = Oral bioavailability in rhesus monkey; type: ADME, organism-based, Macaca mulatta; conditions: in vivo
[16] = Displacement of [125I]-[D-Tyr6,beta-Ala11,Phe13,Nle14]-Bombesin(6-14) from dog BRS3; parameters: species or system Canis lupus familiaris
[17] = Agonist activity at dog BRS3; type: functional, Canis lupus familiaris
PXR = target: T5, PXR (Homo sapiens, UniProt O75469); experiment: Activation of human PXR at 10 uM relative to control; conditions: read-out: Activity
T5 sequence (O75469 whole entry): T4 sequence (O75469 whole entry)

Mus musculus [18] = experiment: Antiobesity activity in diet-induced obese […] knock-out C57 mouse assessed as reduction in food intake at 3 and 30 mg/kg, po administered 60 mins prior to dark cycle onset measured after 18 hrs; type: functional, organism-based; parameters: dose 30 mg/kg
[19] = Agonist activity at rhesus monkey BRS3; type: functional, Macaca mulatta
Canis lupus familiaris = species: Canis lupus familiaris; experiment: Agonist activity at dog BRS3 relative to [125I]-[D-Tyr6,beta-Ala11,Phe13,Nle14]-Bombesin(6-14); type: functional
[20] = target: T2, Bombesin receptor subtype-3; experiment: Agonist activity at human BRS3 expressed in HEK293 cells expressing aequorin measured for 10 mins by bioluminescence assay
[21] = Inhibition of calcium channel Diltiazem hydrochloride binding site

Chain of Voltage-gated inwardly rectifying potassium channel KCNH2 (Q12809 whole entry): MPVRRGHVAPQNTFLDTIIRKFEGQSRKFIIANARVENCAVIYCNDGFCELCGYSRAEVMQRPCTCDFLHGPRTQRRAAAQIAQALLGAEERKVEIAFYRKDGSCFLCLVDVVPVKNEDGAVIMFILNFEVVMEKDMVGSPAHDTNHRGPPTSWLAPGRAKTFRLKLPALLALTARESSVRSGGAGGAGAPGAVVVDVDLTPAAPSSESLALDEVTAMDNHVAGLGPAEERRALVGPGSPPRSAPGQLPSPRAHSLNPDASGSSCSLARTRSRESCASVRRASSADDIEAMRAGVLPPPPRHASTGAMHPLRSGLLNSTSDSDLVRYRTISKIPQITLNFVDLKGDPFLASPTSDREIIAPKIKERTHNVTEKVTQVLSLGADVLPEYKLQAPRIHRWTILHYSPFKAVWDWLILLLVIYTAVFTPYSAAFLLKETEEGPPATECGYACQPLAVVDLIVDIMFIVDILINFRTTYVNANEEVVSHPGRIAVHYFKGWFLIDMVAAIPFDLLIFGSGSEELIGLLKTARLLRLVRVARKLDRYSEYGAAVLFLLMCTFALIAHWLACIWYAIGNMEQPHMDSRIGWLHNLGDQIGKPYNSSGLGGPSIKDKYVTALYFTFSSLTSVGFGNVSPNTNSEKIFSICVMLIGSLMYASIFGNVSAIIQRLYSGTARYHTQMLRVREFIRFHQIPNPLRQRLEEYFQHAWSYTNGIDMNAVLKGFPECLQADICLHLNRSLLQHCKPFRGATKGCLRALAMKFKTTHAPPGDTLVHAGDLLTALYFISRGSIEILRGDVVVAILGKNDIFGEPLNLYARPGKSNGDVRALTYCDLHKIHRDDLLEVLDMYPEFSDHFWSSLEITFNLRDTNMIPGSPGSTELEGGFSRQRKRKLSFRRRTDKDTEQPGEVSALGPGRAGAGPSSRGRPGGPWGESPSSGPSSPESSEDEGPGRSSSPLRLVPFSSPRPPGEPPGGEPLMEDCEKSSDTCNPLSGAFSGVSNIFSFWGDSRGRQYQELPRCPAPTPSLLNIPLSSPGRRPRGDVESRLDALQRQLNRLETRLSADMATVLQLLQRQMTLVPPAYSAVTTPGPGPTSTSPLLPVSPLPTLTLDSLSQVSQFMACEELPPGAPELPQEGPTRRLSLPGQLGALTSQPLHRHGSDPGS

Structure (SMILES)	max activation [1] [%]	EC50 [2] [µM]	EC50 [3] [µM]	IC50 [4] [µM]	further results
Cc1ccc2c(c1C)N(S(=O)(=O)c1ccc(C(F)(F)F)s1)Cc1ccc(C(F)(F)F)nc1N2	90	0.158	0.154	0.01	–
Cc1ccc2c(c1C)N(S(=O)(=O)c1ccc(C(C)(C)C)cc1)Cc1cccnc1N2	101	0.325	0.248	0.04	bioavailability [5]: 1%; half-life [6]: 1.6 h; AUC/dose (Rattus norvegicus): 0.007 µM·kg·h/mg; clearance [7]: 164 mL/min/kg
CC(C)(C)c1ccc(S(=O)(=O)N2Cc3ccc(C(F)(F)F)nc3Nc3ccccc32)cc1	98	0.11	0.161	0.0055	–
Cc1ccc2c(c1C)N(S(=O)(=O)c1ccc(C(C)(C)C)cc1)Cc1cc(F)c(Cl)nc1N2	82	0.277	0.371	0.0089	–
Cc1ccc2c(c1C)N(S(=O)(=O)c1ccc(S(C)(=O)=O)cc1)Cc1ccc(C(F)(F)F)nc1N2	46	0.543	0.561	0.073	–
Cc1ccc2c(n1)Nc1ccc(C)c(C)c1N(S(=O)(=O)c1ccc(C(C)(C)C)cc1)C2	107	0.131	0.232	0.01	–
Cc1ccc2c(n1)N(S(=O)(=O)c1ccc(C(C)(C)C)cc1)Cc1ccc(C(F)(F)F)nc1N2	112	0.11	0.171	–	–
CC(C)(C)c1ccc(S(=O)(=O)N2Cc3ccc(C(F)(F)F)nc3Nc3cccc(O)c32)cc1	115	0.088	0.209	0.0022	–
Cc1c(C(=O)NN2CCCCC2)nn(-c2ccc(Cl)cc2Cl)c1-c1ccc(I)cc1	–	–	–	–	Activity (Mus musculus [8]): 6.2%
Cc1ccc2c(c1)N(S(=O)(=O)c1ccc(C(C)(C)C)cc1)Cc1ccc(C(F)(F)F)nc1N2	82	0.199	0.377	0.0058	bioavailability [5]: 22%; half-life [6]: 2.2 h; AUC/dose (Rattus norvegicus): 0.31 µM·kg·h/mg; clearance [7]: 24 mL/min/kg
CC(C)(C)c1ccc(S(=O)(=O)N2Cc3ccc(C(F)(F)F)nc3Nc3ccc4ncccc4c32)cc1	107	0.108	0.129	0.0007	–
Cc1ccc2c(c1C)N(S(=O)(=O)c1csc(C(F)(F)F)c1)Cc1ccc(C(F)(F)F)nc1N2	103	0.123	0.096	0.014	–
CC(C)(C)c1ccc(S(=O)(=O)N2Cc3ccc(C(F)(F)F)nc3Nc3cccc(Cl)c32)cc1	100	0.063	0.155	0.0032	bioavailability [5]: 34%; half-life [6]: 1.4 h; AUC/dose (Rattus norvegicus): 0.26 µM·kg·h/mg; clearance [7]: 46 mL/min/kg
Cc1cccc2c1N(S(=O)(=O)c1ccc(C(C)(C)C)cc1)Cc1ccc(C(F)(F)F)nc1N2	106	0.05	0.12	0.0009	bioavailability [5]: 14%; half-life [6]: 1.6 h; AUC/dose (Rattus norvegicus): 0.13 µM·kg·h/mg; clearance [7]: 38 mL/min/kg
Cc1ccc2c(c1C)N(S(=O)(=O)c1ccc(C(C)(C)F)cc1)Cc1ccc(C(F)(F)F)nc1N2	108	0.069	0.2	0.0057	–
Cc1ccc2c(c1C)N(S(=O)(=O)c1ccc(OC(F)(F)F)cc1)Cc1ccc(C(F)(F)F)nc1N2	103	0.043	0.08	0.0033	–
Cc1ccc2c(c1C)N(S(=O)(=O)c1ccc(C(C)(C)C)cc1)Cc1ccc(C(F)(F)F)nc1N2	98	–	–	–	Activity (Mus musculus [9]): Dose-dependent effect; max activation (Macaca mulatta): 97%; IC50 [10]: > 10 µM; Activity (Mus musculus [11]): Dose-dependent effect; bioavailability [5]: 15%; EC50 [12]: 0.678 µM; IC50 [13]: 0.003 µM; half-life [14]: 1.8 h; bioavailability [15]: 17%; IC50 [16]: 0.0016 µM; EC50 [17]: 0.036 µM; half-life [6]: 1.6 h; activity at 10 µM (PXR): 42%; Activity (Mus musculus [18]): inactive; EC50 [19]: 0.07 µM; max activation (Canis lupus familiaris): 97%; EC50 [20]: 0.015 µM; AUC/dose (Rattus norvegicus): 0.2 µM·kg·h/mg; clearance [7]: 29 mL/min/kg; IC50 [21]: > 10 µM
Cc1ccc2c(c1C)N(S(=O)(=O)c1ccc(C(F)(F)F)cc1)Cc1ccc(C(F)(F)F)nc1N2	100	0.154	0.079	0.0068	–
Cc1ccc2c(c1C)N(S(=O)(=O)c1ccc(C(C)(C)C#N)cc1)Cc1ccc(C(F)(F)F)nc1N2	83	0.06	0.079	0.0057	–
Cc1ccc2c(c1C)N(S(=O)(=O)c1ccc(C(C)C)cc1)Cc1ccc(C(F)(F)F)nc1N2	110	0.049	0.084	0.0016	bioavailability [5]: 10%; half-life [6]: 3.5 h; AUC/dose (Rattus norvegicus): 0.24 µM·kg·h/mg; clearance [7]: 16 mL/min/kg
Cc1ccc2c(c1C)N(S(=O)(=O)c1ccc(C(C)(C)C)cc1)Cc1ccc(Cl)nc1N2	105	0.038	0.098	0.0012	–
CC(C)(C)c1ccc(S(=O)(=O)N2Cc3ccc(C(F)(F)F)nc3Nc3ccc(C(C)(C)O)c(F)c32)cc1	97	0.077	0.134	0.005	bioavailability [5]: 13%; half-life [6]: 3 h; AUC/dose (Rattus norvegicus): 0.19 µM·kg·h/mg; clearance [7]: 24 mL/min/kg
Cc1ccc2c(c1C)N(S(=O)(=O)c1ccc(C(C)(C)C)cc1)Cc1cc(Cl)cnc1N2	–	> 10	> 10	0.43	–
Cc1ccc2c(c1C)Nc1nc(C(F)(F)F)ccc1CN2S(=O)(=O)c1ccc(C(C)(C)C)cc1	–	> 10	> 10	–	–
Cc1ccc2c(c1C)N(S(=O)(=O)c1ccc(C(C)(C)C)cc1)Cc1ccc(C#N)nc1N2	103	0.05	0.05	0.0044	–
